# Positions of bridges follow the written chain, without caps; N, C: chain ends. Non-standard residues stand in square brackets, D forms with d. No end group written: not given here. Abu = CC[C@H](N)C(=O)O; Dhb = C/C=C(\N)C(=O)O; Dha = C=C(N)C(=O)O
# Experiments:
# [1] = Liposome permeabilization assay, liposomes with lipid II; format: biochemical; conditions: 375 nM lantibiotic; DOPC with 0.1 mol% lipid II, 50 µM phospholipid; pyranine fluorescence, 30 min, room temperature; three replicates; Figure S7B
# Method: To further investigate the mechanisms of action of these nisin-like lantibiotics, we performed liposome permeabilization assays using liposomes with or without lipid II (Figure S7).
# Liposome Permeabilization Assay
# To prepare pyranine encapsulated liposomes, DOPC (25 mg/mL in CHCl3, purchased from Avanti) was deposited into a vial and mixed with lipid II (dissolved in 2:1 CHCl3: MeOH, prepared chemoenzymatically).6 The solvent was removed using a stream of N2 leaving a thin film. Residual solvent was removed by storing it overnight in a vacuum desiccator. The film was rehydrated in buffer (5 mM Tricine, 5 mM MES, 5 mM NaCl, 1 mM pyranine pH = 6.0) and suspended with vortexing. The suspension was subjected to freeze-thaw three times before extrusion through a […] polycarbonate filter (21 passes). Excess pyranine was removed by passing the liposome solution through a Sephadex G-50 column previously equilibrated with buffer (5 mM Tricine, 5 mM MES, 5 mM NaCl, pH = 6.0). The eluted liposome solution containing the highest concentration of encapsulated pyranine (as determined visually with a UV lamp) was immediately placed on ice. Phospholipid concentration was determined by NMR as described previously.7 To measure liposome permeabilization, to a 96 well black polystyrene plate was added buffer (5 mM Tricine, 5 mM MES, 5 mM NaCl, pH = 8.0; 97 µL) and liposome solution (3 µL; 50 µM phospholipid concentration during assay). The wells were allowed to equilibrate for 8 min at room temperature then antibiotic was added. The antibiotic concentration in each well was 375 nM.
# Pyranine fluorescence was monitored for 30 min then Triton X-100 was added to a final concentration of 0.1% and pyranine fluorescence was monitored for an additional 5 min. The pyranine fluorescence signal was max-min normalized. […]
# Fig. S7 Liposome permeabilization assays of nisin-like lantibiotics. (A) Scheme of liposome […]
# low fluorescence. Fluorescence increases upon liposome permeabilization and pH increase . (B) Fraction of liposomes permeabilized by lantibiotics (375 nM). Liposomes were composed of DOPC with or without 0.1 mol% lipid II. Error bars represent the standard of deviation of three […]
# (1 picture or pasted object on this page, not shown here)
# [2] = system: panel of Gram-positive human pathogens (VRE, MRSA, MRSE, L. monocytogenes, C. difficile); test: MIC assay against the panel of Gram-positive human pathogens; format: cell-based; conditions: pathogen panel, Figure 3A-E; anaerobic
# Source text: Next, we set out to test the antimicrobial activities of these purified lantibiotics against a panel of Gram-positive bacteria that are representatives of some of the most prevalent human pathogens: VRE, Methicillin-resistant S. aureus USA300 (MRSA), Methicillin-resistant Staphylococcus epidermidis SK135 (MRSE), Listeria monocytogenes 10403S, and Clostridioides difficile VPI10463. We examined the growth of bacteria in a 96-well plate under a concentration gradient of lantibiotics under anaerobic conditions (Figure S2B).
# Elution Buffer (4 M guanidine hydrochloride, 20 mM Tris HCl, pH 7.5 at 25 °C, 100 mM NaCl, 1 M imidazole). Peptides eluted from the Ni resin were concentrated and desalted using 3 kDa Amicon filters (Millipore). For leader peptide removal, the peptide (1:20 trypsin to peptide) was incubated with the trypsin protease in 50 mM Tris-HCl, pH 8 overnight at 37 °C. Lastly, the core peptides were further purified with HPLC using an Agilent 1200 instrument (Agilent) as specified in general methods. About 1.5 mg recombinant peptide was obtained after HPLC purification per […]
# Purification of blauticin from Blautia producta SCSK
# Stationary anaerobic culture of BPSCSK was inoculated 1:100 to 1 L BHIS. Culture was incubated on a heating plate at 37 °C with 220 rpm stirring for 2 days in an anaerobic chamber. Bacteria were pelleted with 15,000 x g centrifugation for 15 min. The supernatant was acidified with acetic acid to pH 5.5 and filtered through a 0.22 um filter. Filtered supernatant was loaded onto a HiTrap SP HP column using an AKTA Pure FPLC, which was eluted sequentially with 3 CV of distilled water, 200 mM NaCl, 400 mM NaCl, 600 mM NaCl, 800 mM NaCl, and 1 M NaCl. The 800 mM NaCl eluate was concentrated with a 3 kDa Amicon filter, followed by dialyzation with DPBS using a 3 kDa Amicon filter. Purification of blauticin was confirmed by SDS-PAGE, VRE inhibition in vitro assay, and MALDI-TOF MS. […]
# (§1) For broth cultures, isolates were grown in pre-reduced BHI supplemented with 5 g/L yeast extract (Difco, BD) and 0.1% L-cysteine under anaerobic condition.
# (§2) Minimal Inhibition Concentration (MIC) assay
# (§3) All MIC assays were performed under anaerobic condition. Stationary bacterial culture in BHIS (BHI supplemented with 5 g/L yeast extract and 0.1% L-cysteine) were inoculated 1:100 to wells containing 200 µL BHIS in U-bottom 96-well plates. Lantibiotics were dissolved in DPBS, and concentrations were determined by BCA assay (Pierce) according to the manufacturer’s protocol.
# (§4) Lantibiotic stock solutions were added to wells to reach desired final concentration, with 3-fold serial dilution across rows to create concentration gradients. Bacteria-inoculated wells without lantibiotics served as control. […]
# L. monocytogenes 10403s = test: MIC assay, anaerobic broth dilution; format: cell-based, Listeria monocytogenes; conditions: BHIS, 37 °C, 48 h, 3-fold serial dilution
# Source text: Next, we set out to test the antimicrobial activities of these purified lantibiotics against a panel of Gram-positive bacteria that are representatives of some of the most prevalent human pathogens: VRE, Methicillin-resistant S. aureus USA300 (MRSA), Methicillin-resistant Staphylococcus epidermidis SK135 (MRSE), Listeria monocytogenes 10403S, and Clostridioides difficile VPI10463. We examined the growth of bacteria in a 96-well plate under a concentration gradient of lantibiotics under anaerobic conditions (Figure S2B). […]
# as §1, §2, §3, §4
substance,measurement,setting,value
"nisin A (I[Dhb]AI[Dha]LC[Abu]PGCK[Abu]GALMGCNMK[Abu]A[Abu]CHCSIHV[Dha]K; thioether 8-11, 13-19, 23-26, 25-28, 3-7; UniProt P13068 24-57, looked up) [prototypical class I lantibiotic produced by L. lactis, food preservative; commercial nisin A]",permeabilization of lipid II-containing liposomes (in words),[1],strongly induced permeabilization
same,inhibitory activity against pathogens based on MIC (ranking in words),[2],strongest inhibitory activities
same,nisin A MIC,L. monocytogenes 10403s,2.67 µM

# Reference: article PMC10877564, “Activity of Gut-Derived Nisin-like Lantibiotics against Human Gut Pathogens and Commensals” (ACS Chemical Biology, 2024)
